Experimental data published in PMC6149824, “Design and Synthesis of New Benzothiazole Compounds as Selective hMAO-B Inhibitors” (Molecules : A Journal of Synthetic Chemistry and Natural …, 2017).

Assays:
hMAO-B = molecular target: T1, hMAO-B (Homo sapiens, UniProt P27338); assay: in vitro fluorometric hMAO-B inhibition assay (Amplex Red); assay type: biochemical; conditions: for inhibition at 1000 µM: 10^−3 M; for inhibition at 1000 µM / inhibition at 100 µM: read-out: MAO B Inhibition %; for inhibition at 100 µM: 10^−4 M; for inhibition against hMAO-B (first screening step): 10^−3 and 10^−4 M; for IC50: concentrations of 10^−5–10^−9 M, mean ± SD, read-out: MAO B IC50
T1 sequence (P27338 1-520): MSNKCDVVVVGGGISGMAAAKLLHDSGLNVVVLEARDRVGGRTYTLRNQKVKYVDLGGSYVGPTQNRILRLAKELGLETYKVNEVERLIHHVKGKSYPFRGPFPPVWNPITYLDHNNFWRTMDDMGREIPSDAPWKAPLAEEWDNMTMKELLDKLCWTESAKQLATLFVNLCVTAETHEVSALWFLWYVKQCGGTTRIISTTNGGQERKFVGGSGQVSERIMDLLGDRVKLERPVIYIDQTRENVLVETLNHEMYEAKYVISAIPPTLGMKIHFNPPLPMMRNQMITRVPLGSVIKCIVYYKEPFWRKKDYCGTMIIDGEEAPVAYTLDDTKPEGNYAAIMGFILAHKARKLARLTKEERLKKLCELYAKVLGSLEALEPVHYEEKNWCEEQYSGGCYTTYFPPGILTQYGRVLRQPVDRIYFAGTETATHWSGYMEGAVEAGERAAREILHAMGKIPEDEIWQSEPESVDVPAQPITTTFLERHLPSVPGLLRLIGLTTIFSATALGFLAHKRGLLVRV
Protocol: The method was performed in two steps, as previously described.
An enzyme inhibition assay was performed according to our recent study. […] After the incubation period, the reaction was started by adding a working solution (100 μL/well) ([…] Amplex Red reagent, 1 U/mL horseradish peroxidase and 1 mM p-tyramine) and all pipetting processes were performed using a Biotek Precision XS robotic system (BioTek Instruments, Winooski, VT, USA).
(§1) Control experiments were carried out simultaneously by replacing the inhibitor solution with 2% DMSO (20 μL). In order to check the probable inhibitory effect of inhibitors on horseradish peroxidase, a parallel reading was achieved by replacing enzyme solutions with 3% H2O2 solution (20 mM 100 μL/well). In addition, the probable capacity of the inhibitors to modify the fluorescence generated in the reaction mixture due to non-enzymatic inhibition was determined by mixing inhibitor and working solutions.
(§2) The specific fluorescence emission (used to obtain the final results) was calculated after subtraction of the background activity, which was determined from vials containing all components except the hMAO isoforms, which were replaced by phosphate buffer (100 μL/well). Blank, control and all concentrations of inhibitors were analyzed in quadruplicate and inhibition percent was calculated by using following equation: % Inhibition=(FCt2−FCt1)−(FIt2−FIt1)/FCt2−FCt1×100 where FCt2 is the fluorescence of a control well measured at t2 time; FCt1 is the fluorescence of a control well measured at t1 time; FIt2 is the fluorescence of an inhibitor well measured at t2 time; and FIt1 is the fluorescence of an inhibitor well measured at t1 time.
(§3) The IC50 values were calculated from a dose-response curve obtained by plotting the percentage inhibition versus the log concentration with the use of GraphPad PRISM software (version 5.0, GraphPad Software Inc., La Jolla, CA, USA).

hMAO-A = molecular target: T2, hMAO-A (Homo sapiens, UniProt P21397); assay: in vitro fluorometric hMAO-A inhibition assay (Amplex Red); assay type: biochemical; conditions: read-out: MAO A Inhibition %; for inhibition at 1000 µM: 10^−3 M; for inhibition at 100 µM: 10^−4 M
T2 sequence (P21397 1-527): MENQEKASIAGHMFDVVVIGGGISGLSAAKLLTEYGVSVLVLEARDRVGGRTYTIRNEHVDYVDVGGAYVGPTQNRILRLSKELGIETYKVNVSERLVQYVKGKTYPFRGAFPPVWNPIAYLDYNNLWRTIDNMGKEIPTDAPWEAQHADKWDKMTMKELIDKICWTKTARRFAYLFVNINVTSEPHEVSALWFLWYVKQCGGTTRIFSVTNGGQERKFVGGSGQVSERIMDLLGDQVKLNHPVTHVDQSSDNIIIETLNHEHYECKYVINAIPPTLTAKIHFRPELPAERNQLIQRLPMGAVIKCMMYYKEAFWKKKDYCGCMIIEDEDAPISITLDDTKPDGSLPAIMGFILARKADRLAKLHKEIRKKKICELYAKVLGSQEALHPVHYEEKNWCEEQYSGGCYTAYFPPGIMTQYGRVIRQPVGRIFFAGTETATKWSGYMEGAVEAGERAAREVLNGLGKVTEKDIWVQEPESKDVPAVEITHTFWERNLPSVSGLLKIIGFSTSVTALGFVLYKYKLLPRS
Protocol: The in vitro fluorometric enzymatic assay, allowing to sensitively detect monoamine oxidase activity, was applied to investigate hMAO-A and hMAO-B inhibitory potential of compounds 3a–3j. The method was performed in two steps, as previously described. […]
An enzyme inhibition assay was performed according to our recent study. The inhibitor (20 μL/well) and hMAO-A (100 μL/well) or hMAO-B solution (100 μL/well) was added to the fine black-bottom 96-well microtiter plate and the mixture was incubated at 37 °C for 30 min. After the incubation period, the reaction was started by adding a working solution (100 μL/well) ([…] Amplex Red reagent, 1 U/mL horseradish peroxidase and 1 mM p-tyramine) and all pipetting processes were performed using a Biotek Precision XS robotic system (BioTek Instruments, Winooski, VT, USA).
as §1, with “The production of H2O2 and, subsequently, of resorufin was quantified at 37 °C in a BioTek-Synergy H1 microplate reader based on the fluorescence generated (excitation, 535 nm, emission, 587 nm) over a 15 min period, in which the fluorescence increased linearly. Control” for “Control”
as §2, §3

SMILES | inhibition at 1000 µM (hMAO-B) [%] | inhibition at 100 µM (hMAO-B) [%] | melting point [°C] | inhibition at 1000 µM (hMAO-A) [%] | inhibition at 100 µM (hMAO-A) [%] | inhibition against hMAO-B (first screening step) (hMAO-B) | IC50 (hMAO-B) [nM]
O=C(NCCN1CCOCC1)c1ccc(Cl)cc1 [Moclobemide, reference compound] | – | – | – | 91.4 ± 4.6 | 77.9 ± 3.71 | – | –
COc1ccc2sc(SCC(=O)NN=Cc3ccc([N+](=O)[O-])o3)nc2c1 [Compound 3h, 2-((5-Methoxybenzothiazol-2-yl)thio)-N′-((5-nitrofuran-2-yl)methylene)acetohydrazide] | 82.6 | 79.1 | 168.9 to 170.7 | 25.9 | 21.3 | more than 50% | 75 ± 3
COc1ccc2sc(SCC(=O)NN=Cc3ccncc3)nc2c1 [Compound 3j, 2-((5-Methoxybenzothiazol-2-yl)thio)-N′-(pyridin-4-ylmethylene)acetohydrazide] | 34.6 | 30.5 | 159.8 to 161.4 | 22.1 | 17.3 | – | –
COc1ccc2sc(SCC(=O)NN=Cc3cccnc3)nc2c1 [Compound 3i, 2-((5-Methoxybenzothiazol-2-yl)thio)-N′-(pyridin-3-ylmethylene)acetohydrazide] | 32 | 28.8 | 177.5 to 179.3 | 19.9 | 10.6 | – | –

Further lines, results first:

inhibition at 1000 µM (hMAO-B) [%] | inhibition at 100 µM (hMAO-B) [%] | melting point [°C] | inhibition at 1000 µM (hMAO-A) [%] | inhibition at 100 µM (hMAO-A) [%] | inhibition against hMAO-B (first screening step) (hMAO-B) | IC50 (hMAO-B) [nM] | SMILES
24 | 17.8 | 188.3 to 190.4 | 18.9 | 12.7 | – | – | COc1ccc2sc(SCC(=O)NN=Cc3ccc(Br)s3)nc2c1 [Compound 3d, N′-((5-Bromothiophen-2-yl)methylene)-2-((5-methoxybenzothiazol-2-yl)thio)acetohydrazide]
30.5 | 26.9 | 162.9 to 164.4 | 30.1 | 20.4 | – | – | COc1ccc2sc(SCC(=O)NN=Cc3sccc3C)nc2c1 [Compound 3b, 2-((5-Methoxybenzo[d]thiazol-2-yl)thio)-N′-((3-methylthiophen-2-yl)methylene)acetohydrazide]
18.2 | 11.2 | 145.3 to 146.7 | 16.7 | 11.1 | – | – | COc1ccc2sc(SCC(=O)NN=Cc3ccc(C)o3)nc2c1 [Compound 3g, 2-((5-Methoxybenzothiazol-2-yl)thio)-N′-((5-methylfuran-2-yl)methylene)acetohydrazide]
60.4 | 52.1 | 163.7 to 165.3 | 25 | 19 | more than 50% | 15400 ± 398 | COc1ccc2sc(SCC(=O)NN=Cc3cccs3)nc2c1 [Compound 3a, 2-((5-Methoxybenzothiazol-2-yl)thio)-N′-(thiophen-2-ylmethylene)acetohydrazide]
75.7 | 68.3 | 146.1 to 147.9 | 30.8 | 18.3 | more than 50% | 963 ± 33 | COc1ccc2sc(SCC(=O)NN=Cc3ccco3)nc2c1 [Compound 3f, N′-(Furan-2-ylmethylene)-2-((5-methoxybenzothiazol-2-yl)thio)acetohydrazide]
25.8 | 18.2 | 149.6 to 152.3 | 14.1 | 10.8 | – | – | COc1ccc2sc(SCC(=O)NN=Cc3ccc(C)s3)nc2c1 [Compound 3c, 2-((5-Methoxybenzothiazol-2-yl)thio)-N′-((5-methylthiophen-2-yl)methylene)acetohydrazide]
